For orientation: Kd means a measure of binding affinity in units of concentration. The low end stands for tighter binding, the high end for weaker binding. A word on the half-life: it is the time in which the quantity being followed falls by half.

The values that follow come from ChEMBL document CHEMBL5055636, “Design, Optimization, and Structural Characterization of an Apoptosis-Inducing Factor Peptide Targeting Human Cyclophilin A to Inhibit Apoptosis Inducing Factor-Mediated Cell Death” (J Med Chem, 2021).

The source made the active and inactive calls. No cut-off for these calls is given here. Positions of bridges follow the written chain, without caps; N, C: chain ends. Residues, ends and D or L forms follow the SMILES beside them.

For series [1], the target named is Peptidyl-prolyl cis-trans isomerase A (Homo sapiens, UniProt P62937). The series can be described thus: Binding affinity to His6-tagged CypA (unknown origin) expressed in Escherichia coli BL21 (DE3) incubation at 1 hr by multimode plate reader.
Series [2] has as its system HT-22. The experiment in a line: Neuroprotective activity against […]-induced toxicity in mouse HT-22 cells assessed as increase in survival at 50 uM preincubated for 24 hrs followed by […] and measured after 16 hrs by MTT assay. Format: functional. The conditions noted are these: time 40 hrs.
The nature of series [3]: Stability of the compound in human serum assessed as compound remaining after 12 hrs by RP-HPLC analysis. Format: ADME, cell-free. The conditions noted are these: read-out: Stability.
Series [4] in a line: Stability of the compound in human serum after 2 hrs by RP-HPLC analysis. Format: ADME, cell-free.
Series [5] in a line: Cytotoxicity against mouse HT-22 cells assessed as cell viability at 50 uM measured after 24 hrs by MTT assay. The class given is cell-based. The conditions noted are these: read-out: Activity. Background: Formazan colour is commonly taken as a measure of viable cells.
The nature of series [6]: Stability of the compound in human serum assessed as half life after 12 hrs by RP-HPLC analysis. Format: ADME, cell-free.
The nature of series [7]: Stability of the compound in human serum after 6 hrs by RP-HPLC analysis. Format: ADME, cell-free.

For `CC(=O)N[C@H]1CSSC[C@@H](C(N)=O)NC(=O)[C@H](CCC(=O)O)NC(=O)[C@H](C(C)C)NC(=O)[C@H](CCCCN)NC(=O)[C@H](CCCNC(=N)N)NC(=O)CNC(=O)[C@H](CC(=O)O)NC(=O)[C@H](CCCCN)NC(=O)[C@H](CC(C)C)NC(=O)[C@H](CCCCN)NC(=O)[C@H](C)NC(=O)[C@H](CC(C)C)NC1=O` (Ac-CLAKLKDGRKVEC-NH2; disulfide 1-13), the result in series [1] was Active.

With `CC[C@H](C)[C@@H]1NC(=O)[C@H](CC(C)C)NC(=O)[C@@H](NC(C)=O)CSSC[C@@H](C(N)=O)NC(=O)[C@H](CCC(=O)O)NC(=O)[C@H](C(C)C)NC(=O)[C@H](CCCCN)NC(=O)[C@H](C)NC(=O)CNC(=O)[C@H](CC(=O)O)NC(=O)[C@H](CCCCN)NC(=O)[C@H](CC(C)C)NC(=O)[C@H](CCCCN)NC1=O` (Ac-CLIKLKDGAKVEC-NH2; disulfide 1-13), the outcome in series [1] was inactive.

In the case of `CC[C@H](C)[C@@H]1NC(=O)[C@H](CC(C)C)NC(=O)[C@@H](NC(C)=O)CSSC[C@@H](C(N)=O)NC(=O)[C@H](CCC(=O)O)NC(=O)[C@H](C(C)C)NC(=O)[C@H](C)NC(=O)[C@H](CCCNC(=N)N)NC(=O)CNC(=O)[C@H](CC(=O)O)NC(=O)[C@H](CCCCN)NC(=O)[C@H](CC(C)C)NC(=O)[C@H](CCCCN)NC1=O` (Ac-CLIKLKDGRAVEC-NH2; disulfide 1-13), the result in series [1] was inactive.

For the compound `CC[C@H](C)[C@@H]1NC(=O)[C@H](CC(C)C)NC(=O)[C@@H](NC(C)=O)CSSC[C@@H](C(N)=O)NC(=O)[C@H](CCC(=O)O)NC(=O)[C@H](C(C)C)NC(=O)[C@H](CCCCN)NC(=O)[C@H](CCCNC(=N)N)NC(=O)CNC(=O)[C@H](CC(=O)O)NC(=O)[C@H](CCCCN)NC(=O)[C@H](CC(C)C)NC(=O)[C@H](CCCCN)NC1=O` (Ac-CLIKLKDGRKVEC-NH2; disulfide 1-13), the Kd in series [1] turned out to be 3.2 µM.

In series [1], `CC[C@H](C)[C@H](NC(=O)[C@H](CC(C)C)NC(=O)[C@H](CS)NC(C)=O)C(=O)N[C@@H](CCCCN)C(=O)N[C@@H](CC(C)C)C(=O)N[C@@H](CCCCN)C(=O)N[C@@H](CC(=O)O)C(=O)NCC(=O)N[C@@H](CCCNC(=N)N)C(=O)N[C@@H](CCCCN)C(=O)N[C@H](C(=O)N[C@@H](CCC(=O)O)C(=O)N[C@@H](CS)C(N)=O)C(C)C` (Ac-CLIKLKDGRKVEC-NH2) gave a Kd of 30 µM.

For `CC[C@H](C)[C@@H]1NC(=O)[C@H](CC(C)C)NC(=O)[C@@H](NC(C)=O)CSSC[C@@H](C(N)=O)NC(=O)[C@H](CCC(=O)O)NC(=O)[C@H](C)NC(=O)[C@H](CCCCN)NC(=O)[C@H](CCCNC(=N)N)NC(=O)CNC(=O)[C@H](CC(=O)O)NC(=O)[C@H](CCCCN)NC(=O)[C@H](CC(C)C)NC(=O)[C@H](CCCCN)NC1=O` (Ac-CLIKLKDGRKAEC-NH2; disulfide 1-13), in series [1], the result was Active.

For the compound `CC[C@H](C)[C@@H]1NC(=O)[C@H](CC(C)C)NC(=O)[C@@H](NC(C)=O)CSSC[C@@H](C(N)=O)NC(=O)[C@H](CCC(=O)O)NC(=O)[C@H](C(C)C)NC(=O)[C@H](CCCCN)NC(=O)[C@H](CCCNC(=N)N)NC(=O)CNC(=O)[C@H](CC(=O)O)NC(=O)[C@H](C)NC(=O)[C@H](CC(C)C)NC(=O)[C@H](CCCCN)NC1=O` (Ac-CLIKLADGRKVEC-NH2; disulfide 1-13), the result in series [1] was inactive.

Regarding `CC[C@H](C)[C@@H]1NC(=O)[C@H](CC(C)C)NC(=O)[C@@H](NC(C)=O)CSSC[C@@H](C(N)=O)NC(=O)[C@H](CCC(=O)O)NC(=O)[C@H](C(C)C)NC(=O)[C@H](CCCCN)NC(=O)[C@H](CCCNC(=N)N)NC(=O)CNC(=O)[C@H](CC(=O)O)NC(=O)[C@H](CCCCN)NC(=O)[C@H](C)NC(=O)[C@H](CCCCN)NC1=O` (Ac-CLIKAKDGRKVEC-NH2; disulfide 1-13), the outcome in series [1] was Active.

For `CC[C@H](C)[C@@H]1NC(=O)[C@H](CC(C)C)NC(=O)[C@@H](NC(C)=O)CSSC[C@@H](C(N)=O)NC(=O)[C@H](CCC(=O)O)NC(=O)[C@H](C(C)C)NC(=O)[C@H](CCCCN)NC(=O)[C@H](CCCNC(=N)N)NC(=O)CNC(=O)[C@H](CC(=O)O)NC(=O)[C@H](CCCCN)NC(=O)[C@H](CC(C)C)NC(=O)[C@H](C)NC1=O` (Ac-CLIALKDGRKVEC-NH2; disulfide 1-13), the outcome in series [1] was inactive.

`CC[C@H](C)[C@@H]1NC(=O)[C@@H](NC(C)=O)CSSC[C@@H](C(N)=O)NC(=O)[C@H](C(C)C)NC(=O)[C@H](CCCCN)NC(=O)[C@H](CCCNC(=N)N)NC(=O)CNC(=O)[C@H](CC(=O)O)NC(=O)[C@H](CCCCN)NC(=O)[C@H](CC(C)C)NC(=O)[C@H](CCCCN)NC1=O` (Ac-CIKLKDGRKVC-NH2; disulfide 1-11) yielded a Kd in series [1] of 2.4 µM. Also, the Activity in series [2] was determined as 10%. Besides, in series [3], the remaining at 12 h amounted to 75%. Further, in series [4], the Stability entry is listed as “Unstable”. Further, the viability at 24 h, 50 µM in series [5] is greater than 90%.

With `CC[C@H](C)[C@H](NC(=O)[C@H](Cc1cnc[nH]1)NC(=O)[C@H](CC(=O)O)NC(=O)[C@@H](NC(=O)[C@H](CCC(=O)O)NC(=O)[C@@H](NC(=O)[C@H](CCCCN)NC(=O)[C@H](CCCNC(=N)N)NC(=O)CNC(=O)[C@H](CC(=O)O)NC(=O)[C@H](CCCCN)NC(=O)[C@H](CC(C)C)NC(=O)[C@H](CCCCN)NC(=O)[C@@H](NC(=O)[C@H](CC(C)C)NC(=O)[C@H](CC(C)C)NC(=O)[C@H](CCCCN)NC(=O)CNC(=O)[C@H](CO)NC(=O)[C@H](CO)NC(=O)[C@@H](NC(=O)CNC(=O)[C@@H](NC(=O)[C@H](CO)NC(=O)[C@@H](N)CCC(N)=O)C(C)C)C(C)C)[C@@H](C)CC)C(C)C)[C@@H](C)O)C(=O)O`, the half-life in series [6] is 4 h. For the same compound, the Stability result in series [7] was “Unstable”. For the same compound, the viability at 24 h, 50 µM in series [5] was greater than 90%.

On to `CC[C@H](C)[C@@H]1NC(=O)[C@H](C)NC(=O)[C@@H](NC(C)=O)CSSC[C@@H](C(N)=O)NC(=O)[C@H](CCC(=O)O)NC(=O)[C@H](C(C)C)NC(=O)[C@H](CCCCN)NC(=O)[C@H](CCCNC(=N)N)NC(=O)CNC(=O)[C@H](CC(=O)O)NC(=O)[C@H](CCCCN)NC(=O)[C@H](CC(C)C)NC(=O)[C@H](CCCCN)NC1=O` (Ac-CAIKLKDGRKVEC-NH2; disulfide 1-13), for which, in series [1], the outcome was Active.
